The record followed here is patent publication US20220259249A1, “INHIBITORS OF ANTIBIOTIC RESISTANCE MEDIATED BY ARNT” (priority 2019, published 2022).

Each structure is given as a SMILES string. Where two headings read alike, the source gives them in different places.

The subject of series [1] is P. aeruginosa PA14 col^R 5 (colistin-resistant strain). Nature of the series: microbe, parasite or virus in culture. The conditions noted are these: for IC90: read-out: IC90, synergy with colistin (8 μg/ml), minimum concentration causing at least 90% growth inhibition; for antibacterial activity per se: in the absence of colistin; for inhibition of bacterial growth in the presence of colistin: colistin 8 μg/ml. In kind it is cell-based. How it is done:
The compounds identified by in silico screening were tested for their antibacterial activity (in the absence of colistin) and for their synergistic or adjuvant activity with colistin against a colistin-resistant strain of P. aeruginosa grown in the absence or presence of a sub-inhibitory concentration of colistin (8 μg/ml).
This strain over-expresses the am genes responsible for the modification of lipopolysaccharide by the addition of L-amino-arabinose.
The strain was grown in Mueller-Hinton (MH) medium for 8 hours, and inoculated at a cell density of ˜10^6/ml in MH medium supplemented or not with colistin at a concentration of 16 μg/ml. […] The microtitration plates were incubated at 37° C. without stirring for 24 hours. Bacterial growth was assessed by measuring absorbance at 600 nm (A600) in a microplate reader (Victor 2^V, Perkin-Elmer). […] For each compound three independent experiments were conducted, and the averages of the values obtained in the three experiments are considered to determine the values of IC50 e IC90.

The subject of series [2] is 16HBE cells (human epithelial cells of bronchial origin). Nature of the series: Cell viability test (MTT reduction).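 Note: formazan absorbance at 570 nm after MTT reduction, corrected for cell-free blank wells, reported relative to untreated cells, from duplicate wells over three independent repeats.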 For orientation: Tetrazolium assays rely on reduction of a dye to a coloured formazan, in cell work by metabolically active cells.
Experimental: The cytotoxic potential of the compounds was evaluated on cell cultures in vitro. […] The results are reported in the table as viability (%) compared to untreated cells (Table 4).
To evaluate the cytotoxic potential of the compounds under examination, the MTT (3-(4,5-dimethylthiazol-2-yl)-2,5-diphenyltetrazolium) reduction test, commonly used to monitor cell viability was used following the exposure to potentially cytotoxic agents. The essay is based on the reduction of MTT to formazan, a compound that assumes a blue colour which can be evaluated by spectrophotometric reading at a wavelength of 570 nm. For the essay we used the 16HBE cell line. […] Each test was performed in duplicate and three independent replicas were made.
Cell viability was calculated as follows:
COD570=OD570 of sample−OD570 of wells without cells (white)
Viability=100−reduction (%)
where: NT indicates the samples of cells non-threated with the compounds; T the samples of cells treated with the compounds at the different concentrations.
The mean cell viability values were calculated using the Excel mean and standard deviation functions.
Where [3] appears, read: Pseudomonas aeruginosa, PA14, 24 h, read-out: IC50 without colistin.
Where [4] appears, read: read-out: IC50, synergy with colistin (8 μg/ml), PA14 ColR5, colistin 8 μg/ml (sub-inhibitory), minimum concentration causing at least 50% growth inhibition, 24 h.
[5] abbreviates: PA14 ColR5, colistin 8 μg/ml (sub-inhibitory), 24 h.
[6] abbreviates: 16HBE, 1.95 μM, 18 hours, MTT, vs untreated cells.
The mark [7] stands for this setting: 16HBE, 3.91 μM, 18 hours, MTT, vs untreated cells.
Where [8] appears, read: 16HBE, 7.81 μM, 18 hours, MTT, vs untreated cells.
[9] abbreviates: 16HBE, 15.63 μM, 18 hours, MTT, vs untreated cells.
The mark [10] stands for this setting: 16HBE, 125 μM, 18 hours, MTT, vs untreated cells.
Where [11] appears, read: 16HBE, 250 μM, 18 hours, MTT, vs untreated cells.
Where [12] appears, read: 16HBE, 62.5 μM, 18 hours, MTT, vs untreated cells.

Consider `COC(=O)[C@]1(C)CCC[C@@]2(C)C3CC[C@@]4(C)C[C@]3(CCC21)CC4=O` (single isomer, unassigned; ent-16) [SR7, methyl ester of ent-16-oxo-beyeran-19-oic acid], for which the IC50 in series [1] (setting [3]) and in series [1] (setting [4]) was more than 250 µM each time. The IC90 in series [1] (setting [5]) was more than 250 µM.
For the compound `O=C1c2c(O)cccc2[C@H]([C@@H]2O[C@H](CO)[C@@H](O)[C@H](O)[C@H]2O)c2cc(CO)cc(O)c21` [BBN36, (10S)-1,8-dihydroxy-3-(hydroxymethyl)-10-[(2S, 3R, 4R, 5S, 6R)-3,4,5-trihydroxy-6-(hydroxymethyl)oxan-2-yl]-10 H-anthracen-9-one], the IC50 in series [1] (setting [3]) and in series [1] (setting [4]) was more than 250 µM throughout. For the same compound, the IC90 in series [1] (setting [5]) was more than 250 µM.
Regarding `O=C(/C=C/c1ccc(O)c(O)c1)O[C@@H]1C[C@](O)(C(=O)O)C[C@@H](O)[C@H]1O` [BBN53, (1S, 3R, 4R, 5R)-3-[(E)-3-(3,4-dihydroxyphenyl)prop-2-enoyl]oxy-1,4,5-trihydroxycyclohexane-1-carboxylic acid], the IC50 in series [1] (setting [3]) and in series [1] (setting [4]) was more than 250 µM each time. For the same compound, the IC90 in series [1] (setting [5]) was more than 250 µM.
Turning to `O=C(CCc1ccc(O)cc1)c1c(O)cc(O)cc1O` [BBN101, 3-(4-hydroxyphenyl)-1-(2,4,6-trihydroxyphenyl)propan-1-one], the IC50 in series [1] (setting [3]) and in series [1] (setting [4]) was more than 250 µM each time. Moreover, the IC90 in series [1] (setting [5]) was more than 250 µM.
Turning to `COc1cc(O)c(O)c(CC=C(C)C)c1-c1coc2cc(O)cc(O)c2c1=O` [BBN118, 3-[3,4-dihydroxy-6-methoxy-2-(3-methylbut-2-enyl)phenyl]-5,7-dihydroxycromen-4-one], the IC50 in series [1] (setting [3]) is more than 250 µM. Also, the IC90 in series [1] (setting [5]) was more than 250 µM.
Take `CC1(C)C=Cc2c(cc(O)c3c(=O)c4cc5c(c(O)c4oc23)OC(C)(C)C=C5)O1` [BBN119, 11,22-dihydroxy-7,7,19,19-tetramethyl-2,8,20-trioxapentacyclo [12.8.0.03,120,04,90,016,21]docosa-1(14), 3(12), 4(9), 5, 10, 15, 17, 21-octaen-13-one]: the IC50 in series [1] (setting [3]) and in series [1] (setting [4]) was more than 250 µM in each case. The IC90 in series [1] (setting [5]) was more than 250 µM.
`C=CC(C)(C)c1c2c(c3oc4c(O)c(O)ccc4c(=O)c3c1O)C(C)(C)C(C)O2` (stereo not shown) [BBN120, rheediaxanthone B]: the IC50 in series [1] (setting [3]) is more than 250 µM. In addition, the IC90 in series [1] (setting [5]) is more than 250 µM.
In the case of `Cc1nccc2c1[nH]c1ccccc12` [BBN135, 1-methyl-9H-pyrido[3,4-b]indole], the IC50 in series [1] (setting [3]) and in series [1] (setting [4]) was more than 250 µM throughout. Further, the IC90 in series [1] (setting [5]) was more than 250 µM.
With `COC(=O)C1=CO[C@@H](O[C@@H]2O[C@H](CO)[C@@H](O)[C@H](O)[C@H]2O)[C@@H]2[C@@H](C)[C@@H](O)C[C@H]12` [BBN139, methyl (1S, 4aS, 6S, 7R, 7aS)-6-hydroxy-7-methyl-1-[(2 S, 3 R, 4 S, 5S, 6R)-3,4,5-trihydroxy-6-(hydroxymethyl)oxan-2-yl]oxy-1,4a, 5,6,7,7a-haxidrocrociclopenta [c] piran-4-carboxylate], the IC50 in series [1] (setting [3]) and in series [1] (setting [4]) was more than 250 µM in each case. Moreover, the IC90 in series [1] (setting [5]) is more than 250 µM.
`COc1cc2ccc(=O)oc2cc1OC/C=C(\C)CCC=C(C)C` [BBN146, 6-methoxy-7-O-geranyl-coumarin]: the IC50 in series [1] (setting [3]) and in series [1] (setting [4]) was more than 250 µM throughout. In addition, the IC90 in series [1] (setting [5]) is more than 250 µM.
On to `CC(C)=CCc1c(O)cc2c(c1O)C(=O)[C@H](O)[C@@H](c1ccc(O)cc1)O2` [BBN147, 6-prenyl-aromadendrine], for which the IC50 in series [1] (setting [3]) is more than 250 µM. In addition, in series [1] (setting [5]), the IC90 was more than 250 µM.
`CC(C)=CCc1c(O)c(C(=O)c2ccccc2)c(O)c2c1OC(C)(C)C=C2` [BBN148, [5,7-dihydroxy-2,2-dimethyl-8-(3-methylbut-2-enyl)cromen-6-yl]-phenylmethanone]: the IC50 in series [1] (setting [3]) and in series [1] (setting [4]) was more than 250 µM in each case. In series [1] (setting [5]), the IC90 is more than 250 µM.
For the compound `O=C(O)c1cc(O)c2c(c1)C(=O)c1cccc(O)c1C2=O` [BBN152, 4,5-dihydroxy-9,10-dioxoanthracene-2-carboxylic acid], the IC50 in series [1] (setting [3]) and in series [1] (setting [4]) was more than 250 µM in each case. The IC90 in series [1] (setting [5]) was more than 250 µM.
For `CC(C)=CCC/C(C)=C/COc1ccc(C(=O)/C=C/c2ccccc2)cc1` [BBN154, 4′-O-geranil-calcone], the IC50 in series [1] (setting [3]) and in series [1] (setting [4]) was more than 250 µM each time. In addition, the IC90 in series [1] (setting [5]) was more than 250 µM.
Consider `C[C@]12C=C[C@@]3(CCC4[C@@](C)(CO)CCC[C@@]4(C)C3CC1)C2` (stereo partly drawn) [FDA, ent-beyer-15-en-18-ol], for which the IC50 in series [1] (setting [3]) and in series [1] (setting [4]) was more than 250 µM in each case. For the same compound, in series [1], the “antibacterial activity per se” value is given as “none of the compounds showed antibacterial activity per se”. The IC90 in series [1] (setting [5]) is more than 250 µM.
Take `C[C@]12C=C[C@@]3(CCC4[C@@](C)(COC(=O)CC(=O)O)CCC[C@@]4(C)C3CC1)C2` (stereo partly drawn) [FDM, ent-beyer-15-en-18-O-malonic acid]: the figures for the IC50 in series [1] (setting [3]) and in series [1] (setting [4]) were more than 250 µM and 62.5 µM, respectively. Also, the “inhibition of bacterial growth in the presence of colistin” value in series [1] is “able to inhibit bacterial growth in the presence of colistin”. Also, in series [1], the “antibacterial activity per se” value is recorded as “none of the compounds showed antibacterial activity per se”. In addition, in series [1] (setting [5]), the IC90 is more than 250 µM. Also, the “Average percentage of cell viability (±standard deviation)” value in series [2] is listed as 106.63 ± 2.87%; in series [2] (setting [6]), 102.92 ± 7.31%; in series [2] (setting [7]) it was 96.70 ± 1.60%; in series [2] (setting [8]), 97.93 ± 2.17%; in series [2] (setting [9]) it was 107.42 ± 0.01%; in series [2] (16HBE, 31.25 μM, 18 hours, MTT, vs untreated cells) it was 113.17 ± 8.95%. For the same compound, the “Average percentage of cell viability (±standard deviation)” value stood at 100.48 ± 12.78% in series [2] (setting [10]) and 85.01 ± 2.40% in series [2] (setting [11]).
Turning to `C[C@]12C=C[C@@]3(CCC4[C@@](C)(COC(=O)CCC(=O)O)CCC[C@@]4(C)C3CC1)C2` (stereo partly drawn) [FDS, ent-beyer-15-en-18-O-succinic acid], the IC50 in series [1] (setting [3]) is more than 250 µM; in series [1] (setting [4]), 31.2 µM. Further, the “inhibition of bacterial growth in the presence of colistin” value in series [1] was “able to inhibit bacterial growth in the presence of colistin”. The “antibacterial activity per se” value in series [1] was “none of the compounds showed antibacterial activity per se”. Moreover, the IC90 in series [1] (setting [5]) was more than 250 µM. In addition, the “Average percentage of cell viability (±standard deviation)” value in series [2] amounted to 102.95 ± 6.74%; in series [2] (setting [6]), 98.93 ± 5.38%; in series [2] (setting [7]), 95.34 ± 8.28%; in series [2] (setting [8]), 93.53 ± 2.01%; in series [2] (setting [9]) it was 99.77 ± 6.58%; in series [2] (setting [12]) it was 102.15 ± 3.15%. The “Average percentage of cell viability (±standard deviation)” value in series [2] (setting [10]) came to 105.88 ± 1.31%; in series [2] (setting [11]) it was 86.12 ± 3.18%.
Turning to `C=C1C[C@@]23CCC4[C@@](C)(CCC[C@@]4(C)C(=O)O)C2CC[C@]1(O)C3` (stereo partly shown) [SR5, 13-hydroxy-kaur-16-en-19-oic acid], the IC50 in series [1] (setting [3]) and in series [1] (setting [4]) was more than 250 µM in each case. Moreover, in series [1] (setting [5]), the IC90 is more than 250 µM.
In the case of `C[C@@]12CCC3[C@@](CCC4[C@](C)(COC(=O)C(=O)O)CCC[C@]43C)(CC1)C2` (stereo partly drawn) [SR8, ent-beyeran-19-O-oxalic acid], the IC50 in series [1] (setting [3]) is more than 250 µM. Further, the IC90 in series [1] (setting [5]) was more than 250 µM. In addition, the “Average percentage of cell viability (±standard deviation)” value was determined as 90.55 ± 4.17% in series [2]; 100.17 ± 14.21% in series [2] (setting [6]); 97.84 ± 10.19% in series [2] (setting [7]); 90.33 ± 4.26% in series [2] (setting [8]); 92.64 ± 6.57% in series [2] (setting [9]); 85.68 ± 6.99% in series [2] (setting [12]). For the same compound, the “Average percentage of cell viability (±standard deviation)” value is 78.02 ± 7.46% in series [2] (setting [10]) and 80.16 ± 2.01% in series [2] (setting [11]).
As for `C[C@@]12CCC3[C@@](CCC4[C@](C)(CO)CCC[C@]43C)(CC1)C2` (stereo partly drawn) [SR9, ent-beyeran-19-ol], the IC50 in series [1] (setting [3]) and in series [1] (setting [4]) was more than 250 µM throughout. The IC90 in series [1] (setting [5]) was more than 250 µM.
